Consider one molecule from patent US5223527A, “Isatineoxime derivatives and their use” (NeuroSearch A/S, priority 1992, dated 1993).

Like-named read-outs stand apart in the source and are kept apart here.

In test [1] the test system is AMPA-induced clonic seizures in NMRI mice. The test can be described thus: AMPA-induced clonic seizures (AMPA seizure test). The format is in vivo. Particulars: Mus musculus, female NMRI mice, dose inhibiting 50% of the mice from having clonic seizures. The procedure:
AMPA given icv (intracerebroventricular) (15 μg/kg) NMRI to mice induces clonic seizures which should be inhibited by non-NMDA receptor antagonists.
Test compound was given i.v. 5 min (or p.o. 30 min) before a 0.3 μg icv administration of AMPA to 10 female NMRI mice (weighing 24-26 g) per dose. The number of mice experiencing clonic seizures within the next 5 min was noted. An ED50 value was calculated as the dose inhibiting 50% of the mice from having clonic seizures.

Another test has as its target AMPA binding site. The test can be described thus: AMPA binding assay (T. Honore et al., Neuroscience Letters 54, 27-32 (1985)).

Regarding `CN(C)S(=O)(=O)c1cc2c(c3c1CCCC3)NC(=O)C2=NO` [5-N,N-dimethylsulfamoyl-1H-6,7,8,9-tetrahydrobenz[g]indole-2,3-dione-3-oxime], the ED50 (commonly the midpoint of the dose-response relation) in test [1] (iv, 5 min, administered i.v. 5 min before 0.3 μg icv AMPA, read-out: ED50 in the AMPA seizure test, i.v.) stood at 3 mg/kg; in test [1] (po, 0.5 h, administered orally (p.o.) 30 min before 0.3 μg icv AMPA, read-out: ED50 in the AMPA seizure test, orally) it was 30 mg/kg. Besides, the IC50 (commonly the concentration that gives 50% inhibition) on AMPA binding site worked out at 2000 nM.
